# Source: patent US9926281B2 (priority 2014, dated 2018)
# Assays:
# rnADAMTS-5 (1-564-6H) = rnADAMTS-5 (1-564-6H) (Rattus norvegicus, UniProt Q6TY19); settings: read-out: Rat ADAMTS-5 potency IC50
# human TACE = human TACE (Homo sapiens (Human), UniProt P78536); settings: read-out: TACE potency IC50
# human MMP13 = human MMP13 (Homo sapiens (Human), UniProt P45452); settings: read-out: hMMP-13 potency IC50
# Procedure: Human MMP13 is preactivated by incubated the enzyme in the same buffer complemented with 1 mM freshly prepared p-Aminophenylmercuric acetate (AMPA) for 1 hour at 37° C.
# human ADAMTS-5 = human ADAMTS-5 (Homo sapiens (Human), UniProt Q9UNA0); settings: read-out: hADAMTS-5 potency IC50
# Chain of human ADAMTS-5 (Q9UNA0 262-930): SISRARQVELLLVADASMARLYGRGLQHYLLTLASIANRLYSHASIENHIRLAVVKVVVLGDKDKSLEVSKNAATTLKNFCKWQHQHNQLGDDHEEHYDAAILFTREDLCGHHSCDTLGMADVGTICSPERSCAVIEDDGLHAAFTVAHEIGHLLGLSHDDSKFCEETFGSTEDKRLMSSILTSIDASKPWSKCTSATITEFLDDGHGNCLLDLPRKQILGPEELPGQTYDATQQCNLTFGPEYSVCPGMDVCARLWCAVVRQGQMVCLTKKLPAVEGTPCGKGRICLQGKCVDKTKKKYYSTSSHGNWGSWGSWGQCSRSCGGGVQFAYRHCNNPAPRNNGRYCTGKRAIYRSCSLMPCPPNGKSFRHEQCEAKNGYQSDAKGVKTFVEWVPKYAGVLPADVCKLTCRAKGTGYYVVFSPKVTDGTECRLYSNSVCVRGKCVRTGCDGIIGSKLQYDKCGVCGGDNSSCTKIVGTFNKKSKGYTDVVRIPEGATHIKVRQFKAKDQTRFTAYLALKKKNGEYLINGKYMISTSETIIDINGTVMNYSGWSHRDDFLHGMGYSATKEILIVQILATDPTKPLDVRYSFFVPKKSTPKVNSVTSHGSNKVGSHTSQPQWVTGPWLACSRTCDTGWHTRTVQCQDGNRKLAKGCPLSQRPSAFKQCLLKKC
# Chain of human TACE (P78536 whole entry, looked up, change not shown): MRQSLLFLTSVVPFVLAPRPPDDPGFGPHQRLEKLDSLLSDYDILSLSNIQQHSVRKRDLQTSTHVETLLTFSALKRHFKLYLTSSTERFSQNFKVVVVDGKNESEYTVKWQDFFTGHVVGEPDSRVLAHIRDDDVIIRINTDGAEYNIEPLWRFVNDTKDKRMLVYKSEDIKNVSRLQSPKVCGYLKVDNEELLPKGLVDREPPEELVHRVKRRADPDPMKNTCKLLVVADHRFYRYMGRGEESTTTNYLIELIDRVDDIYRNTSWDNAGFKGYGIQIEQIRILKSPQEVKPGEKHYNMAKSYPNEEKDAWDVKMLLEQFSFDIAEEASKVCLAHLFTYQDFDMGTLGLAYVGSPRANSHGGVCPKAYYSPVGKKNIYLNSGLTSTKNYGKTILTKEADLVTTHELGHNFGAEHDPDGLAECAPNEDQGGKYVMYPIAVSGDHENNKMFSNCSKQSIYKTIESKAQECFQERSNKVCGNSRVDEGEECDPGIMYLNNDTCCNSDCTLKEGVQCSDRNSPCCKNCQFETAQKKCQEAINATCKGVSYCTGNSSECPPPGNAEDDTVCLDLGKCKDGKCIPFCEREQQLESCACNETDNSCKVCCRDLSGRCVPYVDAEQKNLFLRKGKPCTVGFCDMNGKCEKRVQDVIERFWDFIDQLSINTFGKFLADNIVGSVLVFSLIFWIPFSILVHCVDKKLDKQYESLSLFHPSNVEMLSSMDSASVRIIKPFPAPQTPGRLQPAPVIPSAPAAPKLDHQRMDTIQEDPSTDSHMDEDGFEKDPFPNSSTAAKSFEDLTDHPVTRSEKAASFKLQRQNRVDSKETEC
Compound,IC50 (rnADAMTS-5 (1-564-6H)),IC50 (human TACE),IC50 (human MMP13),IC50 (human ADAMTS-5)
"Cc1cc(F)c(F)cc1N1CCN(C(=O)CCC2(C)NC(=O)NC2=O)CC1 (stereo not drawn) [compound 94, 5-[3-[4-(4,5-difluoro-2-methyl-phenyl)piperazin-1-yl]-3-oxo-propyl]-5-methyl-imidazolidine-2,4-dione]",3020 nM,> 4000 nM,> 20000 nM,2130 nM
"COc1ccc(C2(CCC(=O)N3CCN(c4cc(Cl)ccc4C)CC3)NC(=O)NC2=O)cc1 (stereo not drawn) [compound 79, 5-[3-[4-(5-chloro-2-methyl-phenyl)piperazin-1-yl]-3-oxo-propyl]-5-(4-methoxyphenyl)imidazolidine-2,4-dione]",53 nM,277 nM,> 20000 nM,53 nM
"CN(C)CCOc1ccc(C2(CCC(=O)N3CCN(c4cccc(Cl)c4)CC3)NC(=O)NC2=O)cc1 (stereo not drawn) [compound 80, 5-[3-[4-(3-chlorophenyl)piperazin-1-yl]-3-oxo-propyl]-5-[4-(2-dimethylaminoethyloxy)phenyl]imidazolidine-2,4-dione]",429 nM,> 20000 nM,3790 nM,257 nM
"CC1(CCC(=O)N2CCN(c3cncc(Br)c3)CC2)NC(=O)NC1=O (stereo not drawn) [compound 86, 5-[3-[4-(5-bromo-3-pyridyl)piperazin-1-yl]-3-oxo-propyl]-5-methyl-imidazolidine-2,4-dione]",1790 nM,> 4000 nM,> 20000 nM,1700 nM
"CC1CN(C(=O)CCC2(c3cccnc3)NC(=O)NC2=O)CCN1c1ccccc1 (stereo not drawn) [compound 105, 5-[3-(3-methyl-4-phenyl-piperazin-1-yl)-3-oxo-propyl]-5-(3-pyridyl)imidazolidine-2,4-dione]",162 nM,> 20000 nM,> 20000 nM,226 nM
"CC(C)C1(CCC(=O)N2CCN(c3cc(Cl)cc(Cl)c3)CC2)NC(=O)NC1=O (stereo not drawn) [compound 54, 5-[3-[4-(3,5-dichlorophenyl)piperazin-1-yl]-3-oxo-propyl]-5-isopropyl-imidazolidine-2,4-dione]",91 nM,2270 nM,> 20000 nM,61 nM
"Cc1cc(Cl)ccc1N1CCN(C(=O)CCC2(C)NC(=O)NC2=O)CC1 (stereo not drawn) [compound 17, 5-[3-[4-(4-chloro-2-methyl-phenyl)piperazin-1-yl]-3-oxo-propyl]-5-methyl-imidazolidine-2,4-dione]",> 3940 nM,> 4000 nM,> 20000 nM,2840 nM
"Cc1c(F)cccc1N1CCN(C(=O)CCC2(c3ccccn3)NC(=O)NC2=O)CC1 (stereo not drawn) [compound 100, 5-[3-[4-(3-fluoro-2-methyl-phenyl)piperazin-1-yl]-3-oxo-propyl]-5-(2-pyridyl)imidazolidine-2,4-dione]",163 nM,> 4000 nM,> 20000 nM,185 nM
"CC1(CCC(=O)N2CCN(c3cncc(Cl)c3)CC2)NC(=O)NC1=O (stereo not drawn) [compound 85, 5-[3-[4-(5-chloro-3-pyridyl)piperazin-1-yl]-3-oxo-propyl]-5-methyl-imidazolidine-2,4-dione]",1110 nM,> 4000 nM,> 20000 nM,1270 nM
"Cc1ccc(C)c(N2CCN(C(=O)CCC3(c4cccnc4)NC(=O)NC3=O)CC2)c1 (stereo not drawn) [compound 88, 5-[3-[4-(2,5-dimethylphenyl)piperazin-1-yl]-3-oxo-propyl]-5-(3-pyridyl)imidazolidine-2,4-dione]",119 nM,211 nM,> 20000 nM,119 nM
"Cc1ccc(C2(CCC(=O)N3CCN(c4cccc(Cl)c4)CC3)NC(=O)NC2=O)cc1 (stereo not drawn) [compound 76, 5-[3-[4-(3-chlorophenyl)piperazin-1-yl]-3-oxo-propyl]-5-(p-toy)imidazolidine-2,4-dione]",102 nM,1780 nM,2060 nM,91 nM
"O=C1NC(=O)C(CCC(=O)N2CCN(c3ccc(F)c(Cl)c3)CC2)(c2ccccn2)N1 (stereo not drawn) [compound 96, 5-[3-[4-(3-chloro-4-fluoro-phenyl)piperazin-1-yl]-3-oxo-propyl]-5-(2-pyridyl)imidazolidine-2,4-dione]",57 nM,3590 nM,1060 nM,49 nM
"CC1(CCC(=O)N2CCN(c3ccc(F)cc3)CC2)NC(=O)NC1=O (stereo not drawn) [compound 66, 5-[3-[4-(4-fluorophenyl)piperazin-1-yl]-3-oxo-propyl]-5-methyl-imidazolidine-2,4-dione]",1370 nM,> 20000 nM,> 20000 nM,1310 nM
"Cc1c(F)cccc1N1CCN(C(=O)CCC2(c3cccnc3)NC(=O)NC2=O)CC1 (stereo not drawn) [compound 97, 5-[3-[4-(3-fluoro-2-methyl-phenyl)piperazin-1-yl]-3-oxo-propyl]-5-(3-pyridyl)imidazolidine-2,4-dione]",148 nM,> 4000 nM,> 20000 nM,168 nM
"O=C1NC(=O)C(CCC(=O)N2CCN(c3cccc(F)c3)CC2)(c2ccccn2)N1 (stereo not drawn) [compound 103, 5-[3-[4-(3-fluorophenyl)piperazin-1-yl]-3-oxo-propyl]-5-(2-pyridyl)imidazolidine-2,4-dione]",24 nM,4100 nM,2000 nM,28 nM
"Cc1ccc(C)c(N2CCN(C(=O)CCC3(c4ccccn4)NC(=O)NC3=O)CC2)c1 (stereo not drawn) [compound 87, 5-[3-[4-(2,5-dimethylphenyl)piperazin-1-yl]-3-oxo-propyl]-5-(2-pyridyl)imidazolidine-2,4-dione]",113 nM,120 nM,> 20000 nM,137 nM
"Cc1cc(Cl)c(F)cc1N1CCN(C(=O)CCC2(C)NC(=O)NC2=O)CC1 (stereo not drawn) [compound 93, 5-[3-[4-(4-chloro-5-fluoro-2-methyl-phenyl)piperazin-1-yl]-3-oxo-propyl]-5-methyl-imidazolidine-2,4-dione]",> 4000 nM,> 3530 nM,> 20000 nM,> 4080 nM
"Cc1ccc(F)cc1N1CCN(C(=O)CCC2(c3cccnc3)NC(=O)NC2=O)CC1 (stereo not drawn) [compound 92, 5-[3-[4-(5-fluoro-2-methyl-phenyl)piperazin-1-yl]-3-oxo-propyl]-5-(3-pyridyl)imidazolidine-2,4-dione]",64 nM,1050 nM,> 20000 nM,63 nM
"O=C1NC(=O)C(CCC(=O)N2CCN(c3ccc(F)c(F)c3)CC2)(C2CC2)N1 (stereo not drawn) [compound 113, 5-cyclopropyl-5-[3-[4-(3,4-difluorophenyl)piperazin-1-yl]-3-oxo-propyl]imidazolidine-2,4-dione]",91 nM,> 20000 nM,3620 nM,104 nM
"Cc1ccc(F)cc1N1CCN(C(=O)CCC2(c3ccccn3)NC(=O)NC2=O)CC1 (stereo not drawn) [compound 104, 5-[3-[4-(5-fluoro-2-methyl-phenyl)piperazin-1-yl]-3-oxo-propyl]-5-(2-pyridyl)imidazolidine-2,4-dione]",41 nM,461 nM,> 20000 nM,43 nM
"O=C1NC(=O)C(CCC(=O)N2CCN(c3ccc(F)c(F)c3)CC2)(c2ccccn2)N1 (stereo not drawn) [compound 95, 5-[3-[4-(3,4-difluorophenyl)piperazin-1-yl]-3-oxo-propyl]-5-(2-pyridyl)imidazolidine-2,4-dione]",40 nM,> 4000 nM,2200 nM,48 nM
